The values below come from US20200009211A1, “CURCUMIN-CONTAINING MEDICINAL PREPARATION” (SAN-EI GEN F.F.I., INC., priority 2017, published 2020).

The assay can be described thus: Curcumin administration test (A) in HFD-challenged mice: plasma TCHO, CM, LDL (Test Example 11). The format is in vivo, mice (C57BL/6). The conditions noted are these: HFD-challenged C57BL/6 mice, ad libitum drinking of aqueous liquid for 12 weeks. The protocol: In this test, total cholesterol (TCHO), chylomicron (CM), and LDL cholesterol (LDL) were measured. […] After the feeding period, blood was sampled and centrifuged at […] at 4° C. for 15 minutes to obtain plasma. The plasma was measured by a Fuji Dri-Chem 4000V biochemical automatic analyzer (Fujifilm, Tokyo, Japan).

As to `CC(C)(Oc1ccc(CCNC(=O)c2ccc(Cl)cc2)cc1)C(=O)O` [Bezafibrate], the “CM (chylomicron) in plasma” value is 0.53 mg/dL, the “LDL (LDL cholesterol) in plasma” value is 17.9 mg/dL and the “TCHO (total cholesterol) in plasma” value stood at 125.0 mg/dL.
